Measurements taken from US10556888B2, “Pyrazole compounds or salts thereof, preparation methods therefor, herbicidal compositions and use thereof” (QINGDAO KINGAGROOT CHEMICAL COMPOUNDS CO., LTD, priority 2015, dated 2020).

Legend:
[1] = system: main crop (wheat, corn, rice, soybean, cotton, oilseed, millet and sorghum); assay: Post-emergence test experiment, main crops (Table 2); type: in vivo; parameters: key: Level 10: completely dead; Level 9: above 90% growth inhibition rate; Level 8: above 80% growth inhibition rate; Level 7: above 70% growth inhibition rate; Level 6: above 60% growth inhibition rate; Level 5: above 50% growth inhibition rate; Level 4: above 30% growth inhibition rate; Level 3: above 20% growth inhibition rate; Level 2: above 10% growth inhibition rate; Level 1: above 1-10% growth inhibition rate; Level 0: no effect; settings: 30 g/ha, 3 weeks after spraying, greenhouse
Summary of the method: (§1)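 Compounds, dissolved in acetone, mixed with Tween 80 and diluted in water, were sprayed post-emergence onto greenhouse-grown weeds and crops at the 2-3 leaf stage (2-3 weeks post-sowing). Plants then grown 3 more weeks in the greenhouse before evaluation.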

[2] = system: Monocotyledonous and dicotyledonous weed; assay: Post-emergence test experiment, weed control effect (Table 2); type: in vivo; parameters: key to weed control effect, Setaria viridis (level) / weed control effect, Rorippa indica (level) / weed control effect, Abutilon theophrasti (level) / weed control effect, Echinochloa crus-galli (level) / weed control effect, Digitaria sanguinalis (level): Level 10: completely dead; Level 9: above 90% growth inhibition rate; Level 8: above 80% growth inhibition rate; Level 7: above 70% growth inhibition rate; Level 6: above 60% growth inhibition rate; Level 5: above 50% growth inhibition rate; Level 4: above 30% growth inhibition rate; Level 3: above 20% growth inhibition rate; Level 2: above 10% growth inhibition rate; Level 1: above 1-10% growth inhibition rate; Level 0: no effect; settings: 30 g/ha, 3 weeks after spraying, greenhouse
Summary of the method: as §1

Structure (SMILES)	effect on crop, corn (level) [1]	effect on crop, rice (level) [1]	effect on crop, wheat (level) [1]	weed control effect, Abutilon theophrasti (level) [2]	weed control effect, Bidens pilosa (level) [2]	weed control effect, Digitaria sanguinalis (level) [2]	weed control effect, Echinochloa crus-galli (level) [2]	weed control effect, Rorippa indica (level) [2]	weed control effect, Setaria viridis (level) [2]
C#CCOCc1c(S(C)(=O)=O)ccc(C(=O)c2cnn(C)c2OC(=O)c2cnn(C)c2OCC)c1Cl [Compound 58]	0	3 (Level 3: above 20% growth inhibition rate)	0	7 (Level 7: above 70% growth inhibition rate)	7 (Level 7: above 70% growth inhibition rate)	7 (Level 7: above 70% growth inhibition rate)	10	10	9 (Level 9: above 90% growth inhibition rate)
CCOCCOCc1c(S(C)(=O)=O)ccc(C(=O)c2cnn(C)c2OC(=O)c2cnn(C)c2OCC)c1Cl [Compound 59]	0	3 (Level 3: above 20% growth inhibition rate)	0	7 (Level 7: above 70% growth inhibition rate)	7 (Level 7: above 70% growth inhibition rate)	7 (Level 7: above 70% growth inhibition rate)	8 (Level 8: above 80% growth inhibition rate)	10	6 (Level 6: above 60% growth inhibition rate)
C#CCOCc1c(S(C)(=O)=O)ccc(C(=O)c2cnn(C)c2OC(=O)c2cnn(C)c2)c1Cl [Compound 61]	0	3 (Level 3: above 20% growth inhibition rate)	0	7 (Level 7: above 70% growth inhibition rate)	7 (Level 7: above 70% growth inhibition rate)	7 (Level 7: above 70% growth inhibition rate)	10	10	5 (Level 5: above 50% growth inhibition rate)
COCCCOCc1c(S(C)(=O)=O)ccc(C(=O)c2cnn(C)c2OC(=O)c2cnn(C)c2)c1Cl [Compound 62]	0	3 (Level 3: above 20% growth inhibition rate)	0	7 (Level 7: above 70% growth inhibition rate)	7 (Level 7: above 70% growth inhibition rate)	7 (Level 7: above 70% growth inhibition rate)	10	10	7 (Level 7: above 70% growth inhibition rate)
Cc1nn(C)c(OC(=O)c2cnn(C)c2)c1C(=O)c1ccc(S(C)(=O)=O)c(COCC(F)(F)F)c1Cl [Compound 63]	1 (Level 1: above 1-10% growth inhibition rate)	6 (Level 6: above 60% growth inhibition rate)	0	7 (Level 7: above 70% growth inhibition rate)	7 (Level 7: above 70% growth inhibition rate)	10	10	10	10
Cc1nn(C)c(OC(=O)c2cnn(C)c2)c1C(=O)c1ccc(S(C)(=O)=O)c(COCC(F)F)c1Cl [Compound 64]	2 (Level 2: above 10% growth inhibition rate)	3 (Level 3: above 20% growth inhibition rate)	0	5 (Level 5: above 50% growth inhibition rate)	5 (Level 5: above 50% growth inhibition rate)	9 (Level 9: above 90% growth inhibition rate)	10	10	10
Cc1nn(C)c(OC(=O)c2cnn(C)c2)c1C(=O)c1ccc(S(C)(=O)=O)c(COCC(F)(F)C(F)F)c1Cl [Compound 65]	0	3 (Level 3: above 20% growth inhibition rate)	0	6 (Level 6: above 60% growth inhibition rate)	7 (Level 7: above 70% growth inhibition rate)	7 (Level 7: above 70% growth inhibition rate)	10	10	6 (Level 6: above 60% growth inhibition rate)
Cn1cc(C(=O)Oc2c(C(=O)c3ccc(S(C)(=O)=O)c(COCC(F)(F)F)c3Cl)cnn2C)cn1 [Compound 67]	1 (Level 1: above 1-10% growth inhibition rate)	3 (Level 3: above 20% growth inhibition rate)	0	7 (Level 7: above 70% growth inhibition rate)	7 (Level 7: above 70% growth inhibition rate)	7 (Level 7: above 70% growth inhibition rate)	10	10	9 (Level 9: above 90% growth inhibition rate)
C#CCOCc1c(S(C)(=O)=O)ccc(C(=O)c2c(C)nn(C)c2OC(=O)c2cnn(C)c2)c1Cl [Compound 69]	0	3 (Level 3: above 20% growth inhibition rate)	0	7 (Level 7: above 70% growth inhibition rate)	7 (Level 7: above 70% growth inhibition rate)	6 (Level 6: above 60% growth inhibition rate)	10	10	6 (Level 6: above 60% growth inhibition rate)
CCOCc1c(S(C)(=O)=O)ccc(C(=O)c2c(C3CC3)nn(C)c2OC(=O)c2cnn(C)c2)c1Cl [Compound 70]	3 (Level 3: above 20% growth inhibition rate)	3 (Level 3: above 20% growth inhibition rate)	0	7 (Level 7: above 70% growth inhibition rate)	7 (Level 7: above 70% growth inhibition rate)	10	10	10	10
Cn1cc(C(=O)Oc2c(C(=O)c3ccc(S(C)(=O)=O)c(COCC(F)(F)C(F)F)c3Cl)c(C3CC3)nn2C)cn1 [Compound 71]	0	3 (Level 3: above 20% growth inhibition rate)	0	6 (Level 6: above 60% growth inhibition rate)	8 (Level 8: above 80% growth inhibition rate)	7 (Level 7: above 70% growth inhibition rate)	8 (Level 8: above 80% growth inhibition rate)	10	5 (Level 5: above 50% growth inhibition rate)
